These results are taken from patent US20100162416A1, “Multi-stage stem cell carcinogenesis” (StemLifeLine, Inc., priority 2008, published 2010).

Each structure is given as a SMILES string. “Also recorded” adds a separate entry of the source.

Format in all cases: cell-based, human
Assay [1] deals with selected clones (05, 07, 11) and parental hESC. Briefly: Drug resistance profile: proliferation rate by BrdU incorporation in the presence of chemotherapeutic reagents. Here is the method:
Drug resistance profiles of selected clones were determined for the common classes of chemotherapeutic reagents. Proliferation rate of the clones and parental hESC was measured in the presence of multiple concentrations of 10 different drugs using BrdU incorporation assay. Each drug has been tested in at least three independent experiments, each condition being done in triplicate. The approximate half maximal inhibitory concentration (IC50) was determined for each of the drugs tested. IC50 represents the concentration of a drug that is required for 50% inhibition in vitro.
Response of the selected clones to the following chemotherapeutic reagents was examined. The chemotherapeutic agents were chosen for their wide-spread use and variety with respect to their modes of action: 5-fluorouracil (5-FU), doxorubicin (Doxo), irinotecan (SN-38), taxol, etoposide (VP-16), carmustine (BCNU), methotrexate (MTX), cytarabine (AraC), temozolomide (MTIC) and chlorambucil (CLB). […] Proliferation rate was measured by BrdU incorporation at the end of the drug treatment. All samples were made in triplicates in each of the three independent experiments performed.

Another assay relates to clones 07-B1 and 11-B19. Kind of assay: Drug resistance of BCNU-selected high-resistance clones. The conditions noted are these: clones selected by increasing concentrations of BCNU; data not shown. Here is the method: Two clones, 07 and 11 were exposed to increasing concentrations of BCNU. The surviving cells were cloned and a number of high-resistance clones two of which, 07-B1 and 11-B19 were isolated. Their drug resistance to BCNU and MTIC was tested.

Assay [2] has as its system isogenic cloned cell lines derived from one hESC line. Kind of assay: Resistance of the panel of isogenic cloned cell lines to common chemotherapeutic agents. Conditions: panel of isogenic cloned cell lines with CSC phenotype. The text has this:
Using one hESC line, a panel of isogenic cloned cell lines has already been generated and banked. […] High resolution karyotype (G-banding), proliferation rate (BrdU incorporation and doubling time), growth factor dependence and expression of CSC/SC markers such as Oct-4, Nanog, CD133, ABCG2, ABCG5 etc) have been examined and the stability of the expressed phenotypes was confirmed.

The subject of assay [3] is clones 05, 07, 11, isogenic hESC control and isogenic cancer lines TMEC02, TMEC03. Kind of assay: Salinomycin dose response measured by BrdU incorporation. The conditions noted are these: clones 05 and 07 compared with clone 11, isogenic hESC control.

As to `O=c1[nH]cc(F)c(=O)[nH]1` [5-FU, 5-fluorouracil], in assay [1] (clone 07 compared with clone MEC-11), the “resistance of clone 07” value was “more resistant”. Take `O=NN(CCCl)C(=O)NCCCl` [BCNU, carmustine]: the “resistance of clones 07-B1 and 11-B19 relative to parental clones” value in the assay with clones 07-B1 and 11-B19 was “higher resistance than the parental clones”. The “resistance of transformed cell lines to the agent” value (from here on “resistance … to the agent”) in assay [2] is given as “increased resistance”. For the molecule `COc1cccc2c1C(=O)c1c(O)c3c(c(O)c1C2=O)C[C@@](O)(C(=O)CO)C[C@@H]3O[C@H]1C[C@H](N)[C@H](O)[C@H](C)O1` [doxorubicin], in assay [2], the “resistance … to the agent” value was “increased resistance”.

Consider `CO[C@@]12[C@H](COC(N)=O)C3=C(C(=O)C(C)=C(N)C3=O)N1C[C@@H]1N[C@@H]12` [mitomycin C], for which the “effect on proliferation (positive control)” value in assay [1] (all cell lines, BrdU incorporation at end of drug treatment) was “induced growth arrest in all cell lines”.

Regarding `CC(=O)O[C@H]1C(=O)[C@@]2(C)[C@H]([C@H](OC(=O)c3ccccc3)[C@]3(O)C[C@H](OC(=O)[C@H](O)[C@@H](NC(=O)c4ccccc4)c4ccccc4)C(C)=C1C3(C)C)[C@]1(OC(C)=O)CO[C@@H]1C[C@@H]2O` [paclitaxel], in assay [2], the “resistance … to the agent” value was “increased resistance”. For `CC[C@@H](C(=O)[C@@H](C)[C@@H](O)[C@H](C)[C@@H]1O[C@@H]([C@@H](CC)C(=O)O)CC[C@@H]1C)[C@H]1O[C@]2(C=C[C@@H](O)[C@]3(CC[C@@](C)([C@H]4CC[C@](O)(CC)[C@H](C)O4)O3)O2)[C@H](C)C[C@@H]1C` [salinomycin], the “effect of drug on proliferation of clones 05 and 07” value in assay [3] is recorded as “most significantly affected; also recorded: significantly more affected”.
